# Data reported in ChEMBL document CHEMBL2073741, “MRP8, ATP-binding cassette C11 (ABCC11), is a cyclic nucleotide efflux pump and a resistance factor for fluoropyrimidines 2',3'-dideoxycytidine and 9'-(2'-phosphonylmethoxyethyl)adenine” (J Biol Chem, 2003).
# Biological target: ATP-binding cassette sub-family C member 11 (Homo sapiens) (UniProt Q96J66)
# Assay: TP_TRANSPORTER: transport into inside-out membrane vesicles in membrane vesicle from MRP8-2-expressing LLC-PK1 cells
# Assay type: functional, cell membranes
# Chain of ATP-binding cassette sub-family C member 11 (Homo sapiens) (Q96J66 whole entry): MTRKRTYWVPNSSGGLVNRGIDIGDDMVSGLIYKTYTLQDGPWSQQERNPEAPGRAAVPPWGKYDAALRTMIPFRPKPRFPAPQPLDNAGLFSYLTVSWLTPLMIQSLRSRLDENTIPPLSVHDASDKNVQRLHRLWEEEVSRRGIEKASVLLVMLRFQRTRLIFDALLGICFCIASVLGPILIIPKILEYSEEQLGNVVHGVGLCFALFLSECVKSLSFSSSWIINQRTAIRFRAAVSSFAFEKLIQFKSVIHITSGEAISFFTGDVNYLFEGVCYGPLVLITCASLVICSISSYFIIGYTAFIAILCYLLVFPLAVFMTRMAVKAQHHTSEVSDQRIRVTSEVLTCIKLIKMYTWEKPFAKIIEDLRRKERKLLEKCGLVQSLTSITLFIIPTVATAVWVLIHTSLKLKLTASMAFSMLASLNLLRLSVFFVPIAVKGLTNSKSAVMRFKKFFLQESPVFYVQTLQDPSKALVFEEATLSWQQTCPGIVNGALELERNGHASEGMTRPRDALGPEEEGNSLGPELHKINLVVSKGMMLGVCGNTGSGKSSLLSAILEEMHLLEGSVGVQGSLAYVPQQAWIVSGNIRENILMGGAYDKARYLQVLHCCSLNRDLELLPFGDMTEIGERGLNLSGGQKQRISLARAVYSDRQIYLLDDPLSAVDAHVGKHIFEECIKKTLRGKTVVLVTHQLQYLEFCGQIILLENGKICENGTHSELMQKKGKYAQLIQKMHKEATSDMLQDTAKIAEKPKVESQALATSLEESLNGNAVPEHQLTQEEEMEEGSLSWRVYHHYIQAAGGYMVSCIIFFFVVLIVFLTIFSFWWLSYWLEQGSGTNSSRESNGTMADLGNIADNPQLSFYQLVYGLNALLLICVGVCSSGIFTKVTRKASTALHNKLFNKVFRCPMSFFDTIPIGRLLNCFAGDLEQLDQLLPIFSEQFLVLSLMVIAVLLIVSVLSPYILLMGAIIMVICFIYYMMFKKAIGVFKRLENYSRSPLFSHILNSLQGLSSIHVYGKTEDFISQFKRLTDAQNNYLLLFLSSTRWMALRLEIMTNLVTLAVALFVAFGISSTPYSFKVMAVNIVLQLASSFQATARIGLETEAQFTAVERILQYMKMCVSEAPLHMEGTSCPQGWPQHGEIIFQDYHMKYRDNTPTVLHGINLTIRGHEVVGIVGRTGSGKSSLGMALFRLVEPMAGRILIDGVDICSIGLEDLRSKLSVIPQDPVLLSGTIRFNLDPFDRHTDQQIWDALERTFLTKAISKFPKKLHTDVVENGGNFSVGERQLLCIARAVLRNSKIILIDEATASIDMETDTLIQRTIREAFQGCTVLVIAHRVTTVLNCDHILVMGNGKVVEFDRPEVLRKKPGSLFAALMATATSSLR
structure (smiles),measurement,value
O=c1[nH]c(=O)n([C@H]2C[C@H](O)[C@@H](COP(=O)(O)O)O2)cc1F,Activity,substrate []
